# Experimental data reported in article PMC12381739, “Druglike Molecular Degraders of the Oncogenic RNA-Binding Protein HuR” (JACS Au, 2025).
# Tests used:
# MCF-7 cells [1] = test: Crystal violet viability assay in MCF-7 cells; type: cell-based, human; conditions: MCF-7, 10 nM and 10 μM, 48 h
# Excerpt: (§1) To elucidate the decrease in cell viability observed, we evaluated the potential increase in apoptosis using the […] Caspase-Glo 3/7 assay system. Upon cell lysis, active caspases cleave a luminogenic substrate, releasing aminoluciferin, which is subsequently converted to light by luciferase. The intensity of the signal directly correlates with the levels of apoptosis. […] This destabilization reduces the levels of proteins essential for cancer cell survival, resulting in cumulative cellular stress, diminished proliferation, and enhanced cytotoxicity. […] This enhanced effect is likely due to the catalytic nature of the molecular glue degraders, offering promising potential for cancer treatment.
# […] After treatment, the medium was removed, and cells were gently washed with PBS to remove any residual media. Cells were then fixed by adding 100 μL of 100% cold methanol and incubating for 10 min. The methanol was aspirated, and the cells were allowed to air-dry fully. The cells were stained with 50 μL of 0.1% crystal violet for 10 min, after which excess crystal violet was aspirated and the cells were washed with PBS. To quantify cell viability, 100 μL of 33% acetic acid was added to each well to solubilize the bound dye. […] was then measured at 590 nm using Synergy H1 Hybrid Multi-Mode Microplate Reader (Biotek, Agilent). […]
# Bcl2 and FOXQ1 mRNA = test: mRNA RT-qPCR of Bcl2 and FOXQ1 in MCF-7 cells; type: cell-based, human; conditions: MCF-7, concentrations ranging from 1 nM to 100 nM
# Experimental: MCF-7 cells were seeded into 12-well plates (∼150,000 cells per well) at 60–70% confluency incubated for 12 h. The cells were then treated with different synthesized compounds at the indicated concentrations or with vehicle control for 24 and 48 h. After treatment, total RNA was extracted using the QuickRNA Miniprep Kit (Zymo Research) according to the manufacturer’s protocol, including DNase I treatment. Reverse transcription was performed on 1 μg of total RNA using the qScript cDNA Synthesis Kit (Quantabio) following the manufacturer’s instructions. Approximately 30 ng of cDNA were used for each qPCR reaction, which was carried out using the Luna Universal qPCR Master Mix (New England BioLabs, cat# E3010G) on a CFX Opus 384 Real-Time PCR System. Relative expression levels of Bcl-2 and FOXQ1 were calculated by normalizing to GAPDH expression using the ΔΔCt method.
# MCF-7 cells [2] = test: Caspase-Glo 3/7 apoptosis assay; type: cell-based, human; conditions: MCF-7, 10 nM
# Excerpt: as §1
# MCF-7 cells were seeded in 96-well plates to 80% confluency and treated with synthesized compounds at four concentrations (1 nM–1 μM) for 24 and 48 h. Cell apoptosis was analyzed using the Caspase-Glo 3/7 Assay System (Promega, G8090). Each sample was incubated with Caspase-Glo 3/7 solution for 1 h, followed by luminescence measurement. Luminescence was measured […] using the Synergy H1 Hybrid Multi-Mode Microplate Reader (Biotek, Agilent). Cell apoptosis was calculated as the percent increase in luminescence of treated cells compared to untreated controls. All experiments were performed in triplicate.
# MCF-10A = test: Crystal violet viability assay in MCF-10A cells; type: cell-based; conditions: 10 nM or 10 μM, 48 h
# Excerpt: as §1
# RNF-126 recruiter for 48 h, measured using crystal violet. (B) Viability assay of MCF-10A cells
# 126 recruiter for 48 h, measured using crystal violet.
# (1 picture or pasted object on this page, not shown here)
# MCF-7 spheroids = test: 3D spheroid growth model, MCF-7; type: cell-based, human; conditions: 10 nM
# Experimental: (§2) MDA-MB-231 and MCF-7 breast cancer cells were cultured in standard tissue culture plates using RPMI or DMEM media supplemented with 10% fetal bovine serum (FBS) and 1% penicillin–streptomycin until they reached approximately 80% confluency. Cells were washed with PBS and dissociated using 0.25% Trypsin-EDTA, followed by neutralization with complete medium. Viability was assessed via trypan blue exclusion, ensuring >90% viable cells. For spheroid formation, cells were seeded into ultralow attachment 96-well plates at a density of 5000 cells/well in 200 μL of complete medium. Plates were centrifuged at 1000 rpm for 5 min to promote aggregation and incubated at 37 °C in a humidified 5% CO2 atmosphere. Spheroid formation was monitored daily using an inverted microscope. Media exchanges or treatment additions were performed by carefully aspirating 100 μL of medium from each well and replacing it with an equal volume of fresh or treatment-containing medium. Differences in spheroid characteristics between the two cell lines were noted: MCF-7 cells, being epithelial and E-cadherin positive, formed compact, uniform spheroids at lower seeding densities (1000–5000 cells/well) over 3–5 days, whereas MDA-MB-231 cells, which lack E-cadherin, required higher densities (5000–10,000 cells/well) and formed looser aggregates typically within 2–4 days. All experiments were performed in duplicates. Surface area was calculated using Image View’s multipoint connection function.
# Bcl2 [3] = test: Bcl2 protein expression by western blot in MDA-MB-231 cells; type: cell-based, human; conditions: MDA-MB-231, 10 nM, 24 h
# Experimental: (§3) The hook effect was again observed in Bcl2 protein expression, underscoring the functional link between HuR and Bcl2.
# (§4) MDA-MB-231 and MCF-7 cells were seeded in 6-well plates at approximately 60% confluency in complete growth medium and treated with synthesized compounds at the indicated concentrations or with vehicle for 24 h. Total protein was extracted using RIPA cell lysis buffer (BioPrep) containing a protease inhibitor, and protein concentration was measured using the BCA protein assay (Sigma-Aldrich) according to the manufacturer’s protocol. Approximately 30 μg of total protein were resolved on a 12% SDS-acrylamide gel and transferred to a PVDF membrane (Immobilon FL transfer membrane; Merck). The membrane was washed with 1× Tris-buffered saline (TBS) containing 0.1% (v/v) Tween-20 (TBST; Tris-base, pH 7.6, NaCl, and Tween-20) and blocked in 1× TBST containing 5% (w/v) BSA for 2 h at room temperature. […] The fold change in the expression of the target proteins (HuR or Bcl2) was calculated by normalizing the band intensity to the Vinculin band intensity using ImageJ.
# MDA-MB-231 spheroids = test: 3D spheroid growth model, MDA-MB-231; type: cell-based, human; conditions: 10 nM
# Experimental: as §2
# Bcl2 [4] = test: Bcl2 protein expression by western blot in MCF-7 cells; type: cell-based, human; conditions: MCF-7, 10 nM, 24 h
# Experimental: as §3, §4
structure (smiles),measurement,setting,value
CCOC(=O)c1cc2cc(NC(=O)/C=C/C(=O)c3ccc(OC)cc3)ccc2[nH]1 [MG-HuR2],cytotoxicity / cell viability (crystal violet),MCF-7 cells [1],exhibited cytotoxic activity
same,Bcl2 and FOXQ1 mRNA expression,Bcl2 and FOXQ1 mRNA,decrease in the expression of both genes
same,apoptosis (caspase 3/7),MCF-7 cells [2],significant increase in apoptosis
same,cytotoxicity / viability in nontumorigenic cells,MCF-10A,No significant cytotoxicity or change in viability
same,spheroid growth,MCF-7 spheroids,inhibited spheroid growth after 2 days
same,reduction of Bcl2 protein expression,Bcl2 [3],45%
same,spheroid growth,MDA-MB-231 spheroids,inhibited spheroid growth after 2 days
same,reduction of Bcl2 protein expression,Bcl2 [4],88%
